Data taken from US9862712B2, “Benzimidazole based EGFR inhibitors” (COUNCIL OF SCIENTIFIC & INDUSTRIAL RESEARCH, priority 2014, dated 2018).

What was measured:
[1] = system: A549 Cell line (Lung Cancer Cell line); test: MTT cell proliferation assay, A549 Cell line; assay type: cell-based, human; settings: Homo sapiens, 72 h, MTT; for viability at 0.01 µM: A549, 0.01 μM; for viability at 0.1 µM: A549, 0.1 μM; for viability at 2.5 µM: A549, 2.5 μM; for viability at 5 µM: A549, 5 μM; for viability at 10 µM: A549, 10 μM
Experimental: (§1) 1. Protocol Followed for Anti Cancer Activity and Results, Cell Proliferation Assays: Cell lines used herein were purchased from NCCS (National Center for Cell Sciences) Pune, India. Invitro Activity was performed in NCL (National Chemical Laboratory) Pune. Each cell line was plated in 96-well microtiter plates (10,000 cells per well), and serial dilutions of indicated compounds were added. At the end of the incubation period (72 h at 37° C.), cell viability was determined by a tetrazolium dye, MTT (3-(4,5-dimethylthiazol-2-yl)-2,5-diphenyl tetrazolium bromide) (Promega, USA). The formazan crystals were dissolved in DMSO, and the absorbance at 600 nm was recorded using an ELISA plate reader. IC50 values were calculated using nonlinear regression and defined as the concentration needed for a 50% reduction in absorbance of treated versus untreated control cells.
By using the above procedure, the compounds of the invention were tested on A549 Cell line and the results obtained are presented below in table 4, Refer FIG. 1.

MCF-7 Cell line = test: MTT cell proliferation assay, MCF-7 Cell line; assay type: cell-based; settings: Homo sapiens, MCF7, 72 h, MTT; for viability at 0.01 µM: MCF-7, 0.01 μM; for viability at 0.1 µM: MCF-7, 0.1 μM; for viability at 2.5 µM: MCF-7, 2.5 μM; for viability at 5 µM: MCF-7, 5 μM; for viability at 10 µM: MCF-7, 10 μM
Experimental: as §1
Table 4 indicates anticancer activity against A549 Cell line. The Gefitinib was used as standard and % cell Viable was measured compared to control. The procedure used was MTT assay as mentioned. […] By using the above procedure, the compounds of the invention were tested on MCF-7 Cell line and the results obtained are presented below in table 5, Refer FIG. 2.

HOP-62 Cell line = test: MTT cell proliferation assay, HOP-62 Cell line; assay type: cell-based; settings: Homo sapiens, 72 h, MTT; for viability at 0.01 µM: HOP-62, 0.01 μM; for viability at 0.1 µM: HOP-62, 0.1 μM; for viability at 2.5 µM: HOP-62, 2.5 μM; for viability at 5 µM: HOP-62, 5 μM; for viability at 10 µM: HOP-62, 10 μM
Experimental: as §1
By using the above procedure, the compounds of the invention were tested on HOP-62 Cell line and the results obtained are presented below in table 6, Refer FIG. 3.

MDA-MB-436 Cell line = test: MTT cell proliferation assay, MDA-MB-436 Cell line; assay type: cell-based; settings: Homo sapiens, 72 h, MTT; for viability at 0.01 µM: MDA-MB-436, 0.01 μM; for viability at 0.1 µM: MDA-MB-436, 0.1 μM; for viability at 2.5 µM: MDA-MB-436, 2.5 μM; for viability at 5 µM: MDA-MB-436, 5 μM; for viability at 10 µM: MDA-MB-436, 10 μM
Experimental: as §1
By using the above procedure, the compounds of the invention were tested on MDA-MB-436 Cell line and the results obtained are presented below in table 7, Refer FIG. 4.

[2] = system: U87MG Cell line (Glioblastoma cell line); test: MTT cell proliferation assay, U87MG Cell line; assay type: cell-based; settings: Homo sapiens, U-87 MG, U87MG, 72 h, MTT
Experimental: as §1
By using the above procedure, the compounds of the invention were tested on U87MG Cell line (glioblastoma cell line) and the results obtained are presented below in table 8, Refer FIG. 5.

| Structure (SMILES) | viability at 0.01 µM [1] [%] | viability at 0.1 µM [1] [%] | viability at 2.5 µM [1] [%] | viability at 5 µM [1] [%] | viability at 10 µM [1] [%] | viability at 0.01 µM (MCF-7 Cell line) [%] | viability at 0.1 µM (MCF-7 Cell line) [%] | viability at 2.5 µM (MCF-7 Cell line) [%] | viability at 5 µM (MCF-7 Cell line) [%] | viability at 10 µM (MCF-7 Cell line) [%] | viability at 0.01 µM (HOP-62 Cell line) [%] | viability at 0.1 µM (HOP-62 Cell line) [%] | viability at 2.5 µM (HOP-62 Cell line) [%] | viability at 5 µM (HOP-62 Cell line) [%] | viability at 10 µM (HOP-62 Cell line) [%] | viability at 0.01 µM (MDA-MB-436 Cell line) [%] | viability at 0.1 µM (MDA-MB-436 Cell line) [%] | viability at 2.5 µM (MDA-MB-436 Cell line) [%] | viability at 5 µM (MDA-MB-436 Cell line) [%] | viability at 10 µM (MDA-MB-436 Cell line) [%] | also measured |
| --- | --- | --- | --- | --- | --- | --- | --- | --- | --- | --- | --- | --- | --- | --- | --- | --- | --- | --- | --- | --- | --- |
| Cc1ccc2[nH]c(-c3sc(Nc4ccccc4)nc3N)nc2c1 [Molecule S4-M10, 5-(5-methyl-1H-benzo[d]imidazol-2-yl)-N2-phenylthiazole-2,4-diamine] | 90.9 | 81 | 70.4 | 61.4 | 49.4 | 141 | 120 | 104 | 100 | 100 | 104 | 100 | 99.4 | 95.4 | 89.4 | 92.9 | 84 | 76.4 | 61.4 | 49.4 | viability at 0.01 µM [2]: 88.9%; viability at 0.1 µM [2]: 75%; viability at 2.5 µM [2]: 68.4%; viability at 5 µM [2]: 55.4%; viability at 10 µM [2]: 41.4% |
| Nc1nc(Nc2cccc(C(F)(F)F)c2)sc1-c1nc2ccccc2[nH]1 [Molecule S4-M8, 5-(1H-benzo[d]imidazol-2-yl)-N2-(3-(trifluoromethyl)phenyl)thiazole-2,4-diamine] | 98.6 | 88.8 | 76.6 | 68.6 | 59.6 | 98.6 | 90.8 | 82.6 | 79.6 | 69.6 | 99.6 | 90.8 | 89.6 | 81.6 | 80.6 | 101 | 99.8 | 98.6 | 97.6 | 97.6 | viability at 0.01 µM [2]: 86.6%; viability at 0.1 µM [2]: 73.8%; viability at 2.5 µM [2]: 61.6%; viability at 5 µM [2]: 54.6%; viability at 10 µM [2]: 41.6% |
| COc1ccc(Nc2nc(N)c(-c3nc4c(C)cccc4[nH]3)s2)cc1 [Molecule S4-M15, N^2-(4-methoxyphenyl)-5-(4-methyl-1H-benzo[d]imidazol-2-yl)thiazole-2,4-diamine] | 93.1 | 79.7 | 68.3 | 59.3 | 49.3 | 92.1 | 89.9 | 75.7 | 70.7 | 61.3 | 104 | 98.7 | 92.7 | 81.7 | 77.3 | 96.1 | 94.9 | 90.7 | 81.7 | 71.3 | viability at 0.01 µM [2]: 89.1%; viability at 0.1 µM [2]: 82.9%; viability at 2.5 µM [2]: 71.7%; viability at 5 µM [2]: 59.7%; viability at 10 µM [2]: 48.3% |
| COc1cc2ncnc(Nc3ccc(F)c(Cl)c3)c2cc1OCCCN1CCOCC1 [Gefitinib, reference compound] |  |  |  |  |  | 55.2 | 43.7 | 35.3 | 29.3 | 20.3 | 55.2 | 43.7 | 35.3 | 29.3 | 20.3 | 55.2 | 43.7 | 35.3 | 29.3 | 20.3 |  |
| Cc1ccc2[nH]c(-c3sc(Nc4ccc(Cl)cc4)nc3N)nc2c1 [Molecule S4-M12, N^2-(4-chlorophenyl)-5-(5-methyl-1H-benzo[d]imidazol-2-yl)thiazole-2,4-diamine] | 93.1 | 81.4 | 69.9 | 58.9 | 49.9 | 99.1 | 91.4 | 85.9 | 74.9 | 70.8 | 102 | 95.4 | 92.9 | 85.9 | 79.9 | 94.1 | 89.4 | 79.9 | 65.9 | 51.8 | viability at 0.01 µM [2]: 92.1%; viability at 0.1 µM [2]: 81.4%; viability at 2.5 µM [2]: 73.9%; viability at 5 µM [2]: 61.9%; viability at 10 µM [2]: 49.8% |
| Cc1ccc(Nc2nc(N)c(-c3nc4cc(C)ccc4[nH]3)s2)cc1 [Molecule S4-M14, 5-(5-methyl-1H-benzo[d]imidazol-2-yl)-N2-p-tolylthiazole-2,4-diamine] | 96 | 84.1 | 71.1 | 62.1 | 51.1 | 94 | 90.1 | 83.6 | 69.3 | 65.1 | 101 | 95.1 | 93.6 | 88.3 | 80.1 | 99 | 98.1 | 98.6 | 99.3 | 94.1 | viability at 0.01 µM [2]: 87%; viability at 0.1 µM [2]: 78.1%; viability at 2.5 µM [2]: 67.6%; viability at 5 µM [2]: 53.3%; viability at 10 µM [2]: 46.1% |
| COc1ccc(Nc2nc(N)c(-c3nc4cc(C)ccc4[nH]3)s2)cc1 [Molecule S4-M11, N^2-(4-methoxyphenyl)-5-(5-methyl-1H-benzo[d]imidazol-2-yl)thiazole-2,4-diamine] | 94.8 | 80.7 | 72.8 | 63.8 | 51.8 | 157 | 133 | 110 | 101 | 101 | 157 | 101 | 98.2 | 96.8 | 91.8 | 96.8 | 92.7 | 84.2 | 73.8 | 61.8 | viability at 0.01 µM [2]: 86.8%; viability at 0.1 µM [2]: 71.7%; viability at 2.5 µM [2]: 60.2%; viability at 5 µM [2]: 49.8%; viability at 10 µM [2]: 38.8% |
| Cc1ccc(Nc2nc(N)c(-c3nc4ccccc4[nH]3)s2)cc1 [Molecule S4-M9, 5-(1H-benzo[d]imidazol-2-yl)-N2-p-tolylthiazole-2,4-diamine] | 89 | 79.8 | 68.3 | 57.3 | 48.3 | 100 | 98.8 | 96.3 | 96.3 | 96.6 | 123 | 101 | 100 | 98.3 | 90.8 | 91 | 85.8 | 79.3 | 69.3 | 54.6 | viability at 0.01 µM [2]: 99.4%; viability at 0.1 µM [2]: 99.9%; viability at 2.5 µM [2]: 99.4%; viability at 5 µM [2]: 98.6%; viability at 10 µM [2]: 96.9% |
